Measurements: patent publication US20250092360A1, “METHODS AND COMPOSITIONS FOR GENERATING SOMATOSTATIN+ INTERNEURONS FROM HUMAN FOREBRAIN NEURAL PROGENITOR CELLS” (Trailhead Biosystems Inc., priority 2023, published 2025)
Values joined by “and” are separate entries in the source; they are usually repeats but may differ in a detail not shown here. Equal entries are not always repeated. “Also recorded” adds a separate entry of the source.

B1: BDNF: brain-derived neurotrophic factor; BDNF pathway agonist (protein, UniProt P23560 129-247, looked up)
Neurotrophic factor BDNF: HSDPARRGELSVCDSISEWVTAADKKTAVDMSGGTVTVLEKVPVSKGQLKQYFYETKCNPMGYTKEGCRGIDKRHWNSQCRTTQSYVRALTMDSKKRIGWRFIRIDTSCVCTLTIKRGR
modifications: Neurotrophic factor BDNF
notes: brain-derived neurotrophic factor; BDNF pathway agonist

Assays:
[1] = system: forebrain-committed neural progenitor cells; assay: HD-DoE stage 5, 8-factor experiment (JQ1, Indolactam-V ...): Somatostatin expression; format: cell-based, human; settings: for impact on expression of Somatostatin: FIG. 21/22, in words; for factor contribution, expression of Somatostatin: positive, 8-factor experiment of FIG. 21
Method: To further guide the differentiation of forebrain-committed neural progenitor cells to somatostatin interneuron cells at stage 5, HD-DoE experiments were performed for 3 days after termination of stage 4 treatment. At this time, we focused on maximum expression of SST that was expressed in Somatostatin (+) interneurons and minimum expression of Parvalbumin that is another type of interneurons. This 8-factor experiment included JQ1, (−)-Indolactam-V, Oleic acid, BDNF, IGF-1, 2-phospho-L-Ascorbic acid, Albumax, MK2206. When the model was maximized for expression of Somatostatin, six effectors were identified that could increase its expression levels, including (−)-Indolactam-V, Oleic acid, BDNF, 2-phospho-L-ascorbic acid, Albumax, and MK2206, as shown in FIG. 21. Using dynamic profile analysis, the results of which are shown in FIG. 22, the model was modified to achieve the maximum expression level of Somatostatin and therefore (−)-Indolactam-V, BDNF, and 2-phospho-L-ascorbic acid were included while JQ-1, Oleic acid, Albumax and MK2206 were excluded. Considering the model at different optimization settings for maximum differentiation of cells toward ventral forebrain, the recipe for stage 5 of differentiation included (−)-Indolactam-V, BDNF, IGF-1, and 2-phospho-L-ascorbic acid from this HD-Doe experiment.

[2] = system: forebrain-committed neural progenitor cells; assay: HD-DoE stage 5, 12-factor experiment (96 combinatorial media): Somatostatin expression; format: cell-based, human; settings: for impact on expression of Somatostatin: FIG. 26 dynamic profile, in words; for factor contribution, expression of Somatostatin: positive, 12-factor experiment of FIG. 25
Method: In another HD-DoE experiment, the results of which are shown in FIG. 25, cells were differentiated in 96 different combinatorial media made of 12 factors. These cells were treated with stage 1 to stage 4 medium for a total of 12 days prior to the experiment. […] In this model, we focused on maximum expression of Somatostatin gene expressed in somatostatin (+) interneurons. When the model was optimized for maximum expression of Somatostatin, BDNF, 2-phosph-L-Ascorbic Acid, O-LPA, N2 and Prostratin had the highest factor contributions, 1.75, 10.6, 2.7, 9.2 and 6.4 respectively. […]

[3] = system: forebrain-committed neural progenitor cells; assay: Factor criticality analysis, stage 5 recipe; format: cell-based, human; settings: for contribution to the expression of SST: stage 5, experiment of FIG. 28, in words; for effect on PVALB expression / effect on Somatostatin expression: stage 5, experiment of FIG. 30, in words
Method: To assess the impact of elimination of each validated factor, dynamic profile analysis was again used to compare the expression levels of genes of interest in the absence of each finalized factor while the others were present in the media.
In the stage 5 recipe, each of seven finalized factors was removed while the other six factors remained present in the media and the expression levels of SST and PVALB were assessed compared to the presence of all seven factors. […] Thus, BDNF, (−)-Indolactam-V, and 2-phosph-L-Ascorbic Acid were included in the stage 5 recipe. […] Thus, they were excluded from the recipe. […] Therefore, these effectors were included in the stage 5 recipe for SST maturation.

[4] = system: forebrain-committed neural stem cells; assay: HD-DoE stage 2, 12-factor experiment: NKX2-1 expression; format: cell-based, human; settings: for impact on expression of NKX2-1: model / dynamic profile, in words
Method: To further guide the differentiation of forebrain-committed neural stem cells to ventral forebrain neural stem cells at stage 2, a HD-DoE experiment was performed for 3 days after termination of stage 1 treatment. […] This 12-factor experiment included LDN193189, BMP7, PD0325901, MK2206, A8301, XAV939, CHIR99021, Purmorphamine, SANT-1, AGN193109, TTNPB and GSI-XX. […]

[5] = system: human pluripotent stem cells; assay: HD-DoE stage 1, first 12-factor experiment: gene expression (qPCR) after 3-day treatment; format: cell-based
Text: This example utilizes a method of High-Dimensional Design of Experiments (HD-DoE), as previously described in Bukys et al. (2020) […] 23:101346. The method employs computerized design geometries to simultaneously test multiple process inputs and offers mathematical modeling of a deep effector/response space. The method allows for finding combinatorial signaling inputs that control a complex process, such as during cell differentiation. It allows testing of multiple plausible critical process parameters, as such parameters impact output responses, such as gene expression. Because gene expression provides hallmark features of the phenotype of, for example, a human cell, the method can be applied to identify, and understand, which signaling pathways control cell fate. In the current example, the HD-DOE method was applied with the intent to find conditions for induction of […] neural progenitor-expressed genes, directly from the pluripotent stem cell state. To develop the recipe for each stage, the impact of agonists and antagonists of multiple signaling pathways (herein called effectors) on the expression of two sets of 53 pre-selected genes, after a 3-day treatment, has been tested and modeled. These effectors are small molecules or proteins that are commonly used during stepwise differentiation of stem cells to specific fates. Choice of the effectors were based on current literature on neural induction in forebrain region of developing brain and differentiation of stem cells to neural progenitors. To test the effectors, experiments with at least 8 factors were designed that can assess the response of cells to 48 or more different combinations of effectors in a range of concentrations. To analyze the models, we focused on expression of genes involved in development and patterning of the anterior neuroectoderm and forebrain including OTX2 (Hoch et al. (2015) Cell Reports 12:482-494), SIX3 (Lagutin et al. (2003) Genes & Development 17:368-379) and FEZF2 (Zhang et al. (2014) Development 141:4794-[…]). At later stages we focused on dorsoventral patterning of telencephalon and gene expressed in ventral forebrain including NKX2-1 and absence of PAX6 which is a dorsal forebrain marker (Stoykova et al. (2000) J. Neurosci. 20:8042-8050). The impact of each effector on gene expression level is defined by a parameter called factor contribution that is calculated for each effector during the modeling. To identify the recipe for stage 1 of differentiation, 96 different combinations of effectors generated using Design-of-Experiments compression through D-optimality were robotically prepared. The effector combinations were prepared in a basal media and were subsequently added to the cells, which were then allowed to differentiate. Three days later RNA extraction was performed, and gene expression was obtained using quantitative PCR analysis. The data were normalized and modeled using partial least squares regression analysis to the effector design, resulting in the generation of gene-specific models, which after model tuning for maximal Q2 predictive power, provided explanation of the effectors ability to control the expression of individual genes, combinatorically, and individually. Solutions within the tested space could then be explored to address desirability. Optimizing for maximal expression of SIX3 at 3300 and FEZF2 1355 expression values led to robust solutions. This model was derived from testing 12 effectors including AGN193109, LDN193189, CHIR99021, XAV939, IGF2, Purmorphamine, 4-oxo-RA, TTNPB, SR11237, FGF8, PD0325901 and […]. […] The model was also optimized for maximum expression of FEZF2 separately at 3576 expression value to find any additional factors that can boost expression of forebrain genes. […] To find the set of factors that have the potential to optimize all 3 genes in this experiment, a new assessment was done through dynamic profile analysis with focus on maximal expression of OTX2, FEZF2 and SIX3.

[6] = system: forebrain-committed neural progenitor cells; assay: HD-DoE stage 5, 8-factor experiment (GDNF, BDNF, NT-3 ...): Somatostatin expression; format: cell-based, human
Method: To investigate the effects of other factors on differentiation of forebrain-committed neural progenitor cells to Somatostatin interneuron cells, an additional HD-DoE experiment was performed for 3 days on cells that were treated with stage 1 to stage 4 medium for a total of 12 days prior to the new experiment. This experiment, the results of which are shown in FIG. 23, included eight effectors, GDNF, BDNF, NT-3, ß-NGF, Linoleic acid, 5-Cholesten-3β, LIF and TGF-β3. In this model, we focused on maximum expression of Somatostatin gene expressed in Somatostatin (+) interneurons (Urban-Ciecko and Barth (2016) Nature Reviews Neurosci. 17:401-409). When the model was optimized for maximum expression of Somatostatin, BDNF, NT-3, beta-NGF and Linoleic acid had the highest factor contributions, 25.7, 2, 19.9, 23.5, respectively.
Therefore, the latter were excluded in the recipe.

Molecule	impact on expression of Somatostatin [1]	factor contribution, expression of Somatostatin [1]	factor contribution, expression of Somatostatin [2]	contribution to the expression of SST [3]	effect on PVALB expression [3]	effect on Somatostatin expression [3]	impact on expression of Somatostatin [2]	other results
O=C1O[C@H]([C@@H](O)CO)C(O)=C1OP(=O)(O)O [2-phospho-L-ascorbic acid]	increase	4	10.6	positive contributions	not to PVALB expression	contribute	–	impact on expression of Somatostatin ([1]; listed as 2-phospho-L-Ascorbic acid): positive impact; impact on expression of Somatostatin ([2]; listed as 2-phosph-L-Ascorbic Acid): significant positive effect; also recorded: positive impact
Cc1cc(SCc2sc(-c3ccc(C(F)(F)F)c(F)c3)nc2C)ccc1OCC(=O)O [GW0742]	–	–	–	–	–	–	significant negative impact	–
CCCCCCCC/C=C\CCCCCCCC(=O)OC[C@@H](O)COP(=O)(O)O [O-LPA]	–	–	2.7	–	–	–	–	–
CC(=O)O[C@@]12C[C@@H](C)[C@@]3(O)[C@@H](C=C(CO)C[C@]4(O)C(=O)C(C)=C[C@@H]34)[C@@H]1C2(C)C [Prostratin]	–	–	6.4	–	not to PVALB expression	contribute	significant positive effect; also recorded: positive impact	–
Cc1nn(-c2ccccc2)c(C)c1/C=N/N1CCN(Cc2ccccc2)CC1 [SANT-1]	–	–	–	–	–	–	–	impact on expression of NKX2-1 [4]: negative impact; factor contribution, expression of NKX2-1 ([4]; negative role, model optimized for maximum NKX2-1): 26.3
CC(=O)C(=O)[O-].[Na+] [Sodium Pyruvate]	–	–	–	–	–	–	significant negative impact	–
C/C(=C\c1ccc(C(=O)O)cc1)c1ccc2c(c1)C(C)(C)CCC2(C)C [TTNPB]	–	–	–	–	–	–	–	factor contribution, important input for high expression of SIX3 ([5]; FIG. 2 legend): 23.7; impact on expression of OTX2 ([5]; dynamic profile / model, in words): negative impact; impact on expression of SIX3 ([5]; dynamic profile analysis, in words): negative impact; factor contribution, expression of SIX3 ([5]; negative effect, model optimized for maximal SIX3): 21; factor contribution, expression of OTX2 ([5]; negative impact, model optimized for maximum OTX2): 29 and 28.8; factor contribution, expression of FEZF2 ([5]; positive impact, model optimized for maximum FEZF2 at 3576): 24; impact on expression of NKX2-1 [4]: negative impact
COC(=O)CCC(=O)C(=O)OC [dm-αKG]	–	–	–	–	–	–	significant negative impact	–
(−)-Indolactam-V	increase; also recorded: positive impact	5.2	–	positive contributions	–	–	–	–
B1	increase; also recorded: positive impact	8.1	1.75 and 1.7	positive contributions	not to PVALB expression	contribute	significant positive effect; also recorded: positive impact	impact on expression of Somatostatin ([6]; FIG. 24 dynamic profile, in words): significant effect; also recorded: positive effect; also recorded: positive impact; factor contribution, expression of Somatostatin ([6]; positive, 8-factor experiment of FIG. 23): 25.7; effect on expression of Somatostatin ([3]; stage 5, experiment of FIG. 29, in words): contribute to the maximal expression
